Test system: MV-4-11 cells
Assay: Gene expression microarray analysis (Affymetrix PrimeView) and GSEA
Type: cell-based, human
Design: RFU PODN (11730768_x_at) / Fold change /veh PODN (11730768_x_at) / RFU LINC00158 (11744669_a_at) / Fold change /veh LINC00158 (11744669_a_at) / RFU DUSP10 (11751237_a_at) / Fold change /veh DUSP10 (11751237_a_at) / RFU ID3 (11757404_x_at) / Fold change /veh ID3 (11757404_x_at) / RFU PLEKHG5 (11737974_s_at) / Fold change /veh PLEKHG5 (11737974_s_at) / RFU LRRC4B (11730491_at) / Fold change /veh LRRC4B (11730491_at) / RFU GIMAP4 (11747438_a_at) / Fold change /veh GIMAP4 (11747438_a_at) / RFU KRT8 (11758183_x_at) / Fold change /veh KRT8 (11758183_x_at) / RFU CNN1 (11734310_a_at) / Fold change /veh CNN1 (11734310_a_at) / RFU VPS37D (11726825_at) / Fold change /veh VPS37D (11726825_at) / RFU C10orf10 (11716522_x_at) / Fold change /veh C10orf10 (11716522_x_at) / RFU KIR2DL2 /// KIR2DL4 /// KIR2DL5A /// KIR2DL5B /// KIR2DS1 /// KIR2DS2 /// KIR2DS3 /// KIR2DS4 /// KIR3DL3 /// KIR3DL3 /// KIR3DS1 (11738374_at) / Fold change /veh KIR2DL2 /// KIR2DL4 /// KIR2DL5A /// KIR2DL5B /// KIR2DS1 /// KIR2DS2 /// KIR2DS3 /// KIR2DS4 /// KIR3DL3 /// KIR3DL3 /// KIR3DS1 (11738374_at) / RFU C1QL1 (11718748_at) / Fold change /veh C1QL1 (11718748_at) / RFU TMPRSS4 (11747572_a_at) / Fold change /veh TMPRSS4 (11747572_a_at) / RFU HAMP (11756126_x_at) / Fold change /veh HAMP (11756126_x_at) / RFU RNFT2 (11725882_a_at) / Fold change /veh RNFT2 (11725882_a_at) / RFU NR4A2 (11747474_a_at) / Fold change /veh NR4A2 (11747474_a_at) / RFU ABCC12 (11746883_a_at) / Fold change /veh ABCC12 (11746883_a_at) / RFU TMEM136 (11760407_x_at) / Fold change /veh TMEM136 (11760407_x_at) / RFU CLDN22 /// WWC2 (11732394_at) / Fold change /veh CLDN22 /// WWC2 (11732394_at) / RFU HLA-DPB1 (11760878_x_at) / Fold change /veh HLA-DPB1 (11760878_x_at) / RFU SPINT1 (11716480_a_at) / Fold change /veh SPINT1 (11716480_a_at) / RFU GAP43 (11754022_s_at) / Fold change /veh GAP43 (11754022_s_at) / RFU A4GNT (11735810_at) / Fold change /veh A4GNT (11735810_at) / RFU PRB3 (11715151_x_at) / Fold change /veh PRB3 (11715151_x_at) / RFU TUBB4B (11761932_at) / Fold change /veh TUBB4B (11761932_at) / RFU CAPN14 (11732068_a_at) / Fold change /veh CAPN14 (11732068_a_at) / RFU TMCC2 (11721928_a_at) / Fold change /veh TMCC2 (11721928_a_at) / RFU IRGQ (11745062_a_at) / Fold change /veh IRGQ (11745062_a_at) / RFU FAM174B (11720279_a_at) / Fold change /veh FAM174B (11720279_a_at) / RFU TMPRSS4 (11748680_a_at) / Fold change /veh TMPRSS4 (11748680_a_at) / RFU FAM212B (11763350_a_at) / Fold change /veh FAM212B (11763350_a_at) / RFU PLEKHG5 (11743358_a_at) / Fold change /veh PLEKHG5 (11743358_a_at) / RFU ZSCAN30 (11745921_a_at) / Fold change /veh ZSCAN30 (11745921_a_at) / RFU CMKLR1 (11741424_a_at) / Fold change /veh CMKLR1 (11741424_a_at) / RFU LOC101060620 /// MAPK8IP1 (11723275_at) / Fold change /veh LOC101060620 /// MAPK8IP1 (11723275_at) / RFU SPTSSB (11747773_x_at) / Fold change /veh SPTSSB (11747773_x_at) / RFU PRSS12 (11739890_at) / Fold change /veh PRSS12 (11739890_at) / RFU BIN1 (11741810_x_at) / Fold change /veh BIN1 (11741810_x_at) / RFU WNT11 (11732464_a_at) / Fold change /veh WNT11 (11732464_a_at) / RFU C10orf10 (11716521_a_at) / Fold change /veh C10orf10 (11716521_a_at) / RFU C5orf56 (11738089_at) / Fold change /veh C5orf56 (11738089_at) / RFU CYB561 (11721691_x_at) / Fold change /veh CYB561 (11721691_x_at) / RFU ANKRD19P (11752326_a_at) / Fold change /veh ANKRD19P (11752326_a_at) / RFU OR2T12 /// OR2T33 /// OR2T8 (11738714_s_at) / Fold change /veh OR2T12 /// OR2T33 /// OR2T8 (11738714_s_at) / RFU VCAN (11748164_a_at) / Fold change /veh VCAN (11748164_a_at) / RFU JSRP1 (11732532_at) / Fold change /veh JSRP1 (11732532_at) / RFU KRTAP10-11 (11738290_x_at) / Fold change /veh KRTAP10-11 (11738290_x_at) / RFU MYO3A (11730013_a_at) / Fold change /veh MYO3A (11730013_a_at) / RFU EBF3 (11725865_a_at) / Fold change /veh EBF3 (11725865_a_at) / RFU CAMK2N1 (11719241_x_at) / Fold change /veh CAMK2N1 (11719241_x_at) / RFU C5orf56 (11738088_a_at) / Fold change /veh C5orf56 (11738088_a_at) / RFU OLFML3 (11715873_a_at) / Fold change /veh OLFML3 (11715873_a_at) / RFU LOC100653217 /// NTM (11731650_a_at) / Fold change /veh LOC100653217 /// NTM (11731650_a_at) / RFU MAPK11 (11762145_a_at) / Fold change /veh MAPK11 (11762145_a_at) / RFU FIZ1 (11724087_x_at) / Fold change /veh FIZ1 (11724087_x_at) / RFU OASL (11726364_x_at) / Fold change /veh OASL (11726364_x_at) / RFU SOX15 (11748057_x_at) / Fold change /veh SOX15 (11748057_x_at) / RFU CD79A (11719716_a_at) / Fold change /veh CD79A (11719716_a_at) / RFU HIST1H1D (11736915_at) / Fold change /veh HIST1H1D (11736915_at) / RFU CASKIN2 (11723855_a_at) / Fold change /veh CASKIN2 (11723855_a_at) / RFU LOC730098 (11760151_x_at) / Fold change /veh LOC730098 (11760151_x_at) / RFU OR4N2 (11742367_at) / Fold change /veh OR4N2 (11742367_at) / RFU PRRT2 (11749266_a_at) / Fold change /veh PRRT2 (11749266_a_at) / RFU SNX32 (11753110_a_at) / Fold change /veh SNX32 (11753110_a_at) / RFU CDHR5 (11726645_a_at) / Fold change /veh CDHR5 (11726645_a_at) / RFU RCAN1 (11760418_a_at) / Fold change /veh RCAN1 (11760418_a_at) / RFU FAM167A (11723789_a_at) / Fold change /veh FAM167A (11723789_a_at) / RFU FAM26E (11764081_at) / Fold change /veh FAM26E (11764081_at) / RFU ISYNA1 (11749810_s_at) / Fold change /veh ISYNA1 (11749810_s_at) / RFU ACY1 (11761880_at) / Fold change /veh ACY1 (11761880_at) / RFU 11764098_at / Fold change /veh 11764098_at / RFU SAMD14 (11745864_x_at) / Fold change /veh SAMD14 (11745864_x_at) / RFU NPB (11741838_a_at) / Fold change /veh NPB (11741838_a_at) / RFU TMPRSS6 (11731388_a_at) / Fold change /veh TMPRSS6 (11731388_a_at) / RFU KRTAP10-2 (11738614_at) / Fold change /veh KRTAP10-2 (11738614_at) / RFU ARHGAP8 /// PRR5-ARHGAP8 (11727945_x_at) / Fold change /veh ARHGAP8 /// PRR5-ARHGAP8 (11727945_x_at) / RFU KRTAP5-7 /// NADSYN1 (11734609_at) / Fold change /veh KRTAP5-7 /// NADSYN1 (11734609_at) / RFU RASL12 (11751679_a_at) / Fold change /veh RASL12 (11751679_a_at) / RFU CDKN2B (11736163_a_at) / Fold change /veh CDKN2B (11736163_a_at) / RFU PRF1 (11729649_at) / Fold change /veh PRF1 (11729649_at) / RFU, ZNF638 /// ZNF638-IT1 / Fold change vs veh, ZNF638 /// ZNF638-IT1 / RFU, PANK3 / Fold change vs veh, PANK3 / RFU, SH3YL1 / Fold change vs veh, SH3YL1 / RFU, ZEB2 / Fold change vs veh, ZEB2 / RFU, NRIP1 / Fold change vs veh, NRIP1 / RFU, PTTG1IP / Fold change vs veh, PTTG1IP / RFU, CAPN2 / Fold change vs veh, CAPN2 / RFU, MED14 / Fold change vs veh, MED14 / RFU, SNORA58 / Fold change vs veh, SNORA58 / RFU, C1orf63 / Fold change vs veh, C1orf63 / RFU, LRRFIP1 / Fold change vs veh, LRRFIP1 / RFU, NDUFAF7 / Fold change vs veh, NDUFAF7 / RFU, SLC12A2 / Fold change vs veh, SLC12A2 / RFU, IBTK / Fold change vs veh, IBTK / RFU, ESF1 / Fold change vs veh, ESF1 / Fold change vs veh, TMEM50B / RFU, TAOK1 / Fold change vs veh, TAOK1 / RFU, ACBD3 / Fold change vs veh, ACBD3 / RFU, TMA16 / Fold change vs veh, TMA16 / RFU, RWDD3 / Fold change vs veh, RWDD3 / RFU, BCAT1 / Fold change vs veh, BCAT1 / RFU, EDEM3 / Fold change vs veh, EDEM3 / RFU, TMEM33 / Fold change vs veh, TMEM33 / RFU, WDR75 / Fold change vs veh, WDR75 / RFU, AHCTF1 / Fold change vs veh, AHCTF1 / RFU, TFRC / Fold change vs veh, TFRC / RFU, ZDHHC17 / Fold change vs veh, ZDHHC17 / RFU, NOM1 / Fold change vs veh, NOM1 / RFU, ARL8B / Fold change vs veh, ARL8B / RFU, ZBTB11 / Fold change vs veh, ZBTB11 / RFU, TAMM41 / Fold change vs veh, TAMM41 / RFU, KIAA1704 /// LOC100996395 / Fold change vs veh, KIAA1704 /// LOC100996395 / RFU, ING1 / Fold change vs veh, ING1 / RFU, TRMT61B / Fold change vs veh, TRMT61B / RFU, FUBP3 / Fold change vs veh, FUBP3 / RFU, TP53 / Fold change vs veh, TP53 / RFU, TNKS2 / Fold change vs veh, TNKS2 / RFU, ZFP14 / Fold change vs veh, ZFP14 / RFU, ACTR2 / Fold change vs veh, ACTR2 / RFU, PPP3R1 / Fold change vs veh, PPP3R1 / RFU, PIK3R1 / Fold change vs veh, PIK3R1 / RFU, HNRNPA1 / Fold change vs veh, HNRNPA1 / RFU, RNF170 / Fold change vs veh, RNF170 / RFU, ZNF28 / Fold change vs veh, ZNF28 / RFU, RNGTT / Fold change vs veh, RNGTT / RFU, OGT / Fold change vs veh, OGT / RFU, BRD1 / Fold change vs veh, BRD1 / RFU, MARS / Fold change vs veh, MARS / RFU, ZNF655 / Fold change vs veh, ZNF655 / RFU, FAHD1 / Fold change vs veh, FAHD1 / RFU, BDP1 / Fold change vs veh, BDP1 / RFU, LRRCC1 / Fold change vs veh, LRRCC1 / RFU, ARID1A / Fold change vs veh, ARID1A / RFU, ZNF146 / Fold change vs veh, ZNF146 / RFU, ZNF330 / Fold change vs veh, ZNF330 / RFU, GPN3 / Fold change vs veh, GPN3 / RFU, C9orf123 / Fold change vs veh, C9orf123 / RFU, N4BP2L2 / Fold change vs veh, N4BP2L2 / RFU, ARFIP1 / Fold change vs veh, ARFIP1 / RFU, FAM179B / Fold change vs veh, FAM179B / RFU, BCL10 / Fold change vs veh, BCL10 / RFU, UHRF1BP1L / Fold change vs veh, UHRF1BP1L / RFU, BET1 / Fold change vs veh, BET1 / RFU, CNOT2 / Fold change vs veh, CNOT2 / RFU, ZNF268 / Fold change vs veh, ZNF268 / Fold change vs veh, ZNF507 / RFU, DGCR2 / Fold change vs veh, DGCR2 / RFU, WDSUB1 / Fold change vs veh, WDSUB1 / Fold change vs veh, HSP90B1 /// MIR3652 / RFU, ADSS / Fold change vs veh, ADSS / RFU, GK / Fold change vs veh, GK / RFU, ZNF148 / Fold change vs veh, ZNF148 / RFU, TAF9 / Fold change vs veh, TAF9 / RFU, SLC1A5 / Fold change vs veh, SLC1A5 / RFU, SLMO2 / Fold change vs veh, SLMO2 / RFU, ABCC4 / Fold change vs veh, ABCC4 / RFU, LOC101060439 /// RAP1B / Fold change vs veh, LOC101060439 /// RAP1B / RFU, RFX7 / Fold change vs veh, RFX7 / RFU, GTPBP10 / Fold change vs veh, GTPBP10 / RFU, CNEP1R1 / Fold change vs veh, CNEP1R1 / RFU, BIVM-ERCC5 /// ERCC5 / Fold change vs veh, BIVM-ERCC5 /// ERCC5 / RFU, ILF3 / Fold change vs veh, ILF3 / RFU 11762660_at / Fold change /veh 11762660_at / RFU VCAN (11757783_s_at) / Fold change /veh VCAN (11757783_s_at) / RFU DDX43 (11728927_at) / Fold change /veh DDX43 (11728927_at) / RFU KRT8 (11758188_x_at) / Fold change /veh KRT8 (11758188_x_at) / RFU NKD1 (11759106_at) / Fold change /veh NKD1 (11759106_at) / RFU SRD5A1 (11742802_a_at) / Fold change /veh SRD5A1 (11742802_a_at) / RFU TPSAB1 /// TPSB2 (11721975_s_at) / Fold change /veh TPSAB1 /// TPSB2 (11721975_s_at) / RFU GSTM3 (11746129_a_at) / Fold change /veh GSTM3 (11746129_a_at) / RFU IL23R (11737362_x_at) / Fold change /veh IL23R (11737362_x_at) / RFU TMEM51 (11727254_a_at) / Fold change /veh TMEM51 (11727254_a_at) / RFU PIWIL2 (11732686_x_at) / Fold change /veh PIWIL2 (11732686_x_at) / RFU ORM1 (11744905_x_at) / Fold change /veh ORM1 (11744905_x_at) / RFU CCDC152 (11743942_at) / Fold change /veh CCDC152 (11743942_at) / RFU ECM1 (11717891_a_at) / Fold change /veh ECM1 (11717891_a_at) / RFU IL23R (11748794_a_at) / Fold change /veh IL23R (11748794_a_at) / RFU TNFAIP8L3 (11732012_x_at) / Fold change /veh TNFAIP8L3 (11732012_x_at) / RFU MBOAT4 (11741988_at) / Fold change /veh MBOAT4 (11741988_at) / RFU 11764193_at / Fold change /veh 11764193_at / RFU TMEM53 (11763286_at) / Fold change /veh TMEM53 (11763286_at) / RFU MAGEB2 (11727129_at) / Fold change /veh MAGEB2 (11727129_at) / RFU TMEM200A (11744735_a_at) / Fold change /veh TMEM200A (11744735_a_at) / RFU CCDC152 (11751479_a_at) / Fold change /veh CCDC152 (11751479_a_at) / RFU FAM211A (11726209_a_at) / Fold change /veh FAM211A (11726209_a_at) / RFU RGS16 (11746705_a_at) / Fold change /veh RGS16 (11746705_a_at) / RFU VCAN (11755009_s_at) / Fold change /veh VCAN (11755009_s_at) / RFU RHOB (11743442_s_at) / Fold change /veh RHOB (11743442_s_at) / RFU RGS16 (11720943_a_at) / Fold change /veh RGS16 (11720943_a_at) / RFU RGS16 (11720944_at) / Fold change /veh RGS16 (11720944_at) / RFU, VPS4B / Fold change vs veh, VPS4B / RFU, CREB1 / Fold change vs veh, CREB1 / RFU, DNAJC13 / Fold change vs veh, DNAJC13 / RFU, GNAQ / Fold change vs veh, GNAQ / RFU, CDK5R1 / Fold change vs veh, CDK5R1 / RFU, ZRANB3 / Fold change vs veh, ZRANB3 / RFU, CUL4A / Fold change vs veh, CUL4A / RFU, CCNY / Fold change vs veh, CCNY / RFU, UFL1 / Fold change vs veh, UFL1 / RFU, COG3 / Fold change vs veh, COG3 / RFU, DIAPH2 / Fold change vs veh, DIAPH2 / RFU, SKA2 / Fold change vs veh, SKA2 / RFU, AFF3 / Fold change vs veh, AFF3 / RFU, LMF1 / Fold change vs veh, LMF1 / RFU, IPO11 / Fold change vs veh, IPO11 / RFU, DFFB / Fold change vs veh, DFFB / RFU, FOXP1 / Fold change vs veh, FOXP1 / RFU, CARD8 / Fold change vs veh, CARD8 / RFU, STRN3 / Fold change vs veh, STRN3 / RFU, ADK / Fold change vs veh, ADK / RFU, RASSF2 / Fold change vs veh, RASSF2 / RFU, WIPF1 / Fold change vs veh, WIPF1 / RFU, LARP1B / Fold change vs veh, LARP1B / RFU, RASA1 / Fold change vs veh, RASA1 / RFU, RB1 / Fold change vs veh, RB1 / RFU, PPFIA1 / Fold change vs veh, PPFIA1 / RFU, MAT2A / Fold change vs veh, MAT2A / RFU, CCT5 / Fold change vs veh, CCT5 / RFU, WDR92 / Fold change vs veh, WDR92 / RFU, CUX1 / Fold change vs veh, CUX1 / RFU, TTC7A / Fold change vs veh, TTC7A / RFU, TMEM135 / Fold change vs veh, TMEM135 / RFU, DEPTOR / Fold change vs veh, DEPTOR / RFU, CPM / Fold change vs veh, CPM / RFU, DNAJB6 / Fold change vs veh, DNAJB6 / RFU, CACNA2D3 / Fold change vs veh, CACNA2D3 / RFU, DTX4 / Fold change vs veh, DTX4 / RFU, TFCP2 / Fold change vs veh, TFCP2 / RFU, GMCL1 /// GMCL1P1 / Fold change vs veh, GMCL1 /// GMCL1P1 / RFU, AEBP2 / Fold change vs veh, AEBP2 / RFU, SNHG1 /// SNORD22 /// SNORD25 /// SNORD26 /// SNORD27 /// SNORD28 /// SNORD29 /// SNORD31 / Fold change vs veh, SNHG1 /// SNORD22 /// SNORD25 /// SNORD26 /// SNORD27 /// SNORD28 /// SNORD29 /// SNORD31 / Fold change (Aza/veh), C12orf56 (ProbeSet 11735607_a_at) / Fold change (ACY-1035/veh), C12orf56 (ProbeSet 11735607_a_at) / Fold change (Aza/veh), FGFR1OP (ProbeSet 11751329_s_at) / Fold change (ACY-1035/veh), FGFR1OP (ProbeSet 11751329_s_at) / Fold change (Aza/veh), VPS36 (ProbeSet 11739960_a_at) / Fold change (ACY-1035/veh), VPS36 (ProbeSet 11739960_a_at) / RFU SYPL1 (11715823_x_at) / Fold change /veh SYPL1 (11715823_x_at) / RFU IGFBP7 (11715501_s_at) / Fold change /veh IGFBP7 (11715501_s_at) / RFU REEP3 (11722064_at) / Fold change /veh REEP3 (11722064_at) / RFU IGLL1 (11728026_x_at) / Fold change /veh IGLL1 (11728026_x_at): dose or concentration left out as unconfirmed
Conditions: MV-4-11 cells, 48 hours

With `Nc1ccc(-c2cccs2)cc1NC(=O)c1ccc2c(c1)cc(C1CC1)n2CCN1CCOCC1` [ACY-1035] the “RFU ZSCAN30 (11745921_a_at)” value was 7.88 RFU.
